Reference: US10800791B2, “Triazole ACC inhibitors and uses thereof” (Gilead Apollo, LLC, priority 2015, dated 2020)
Values after ≈ are worked out from the molar mass of the structure shown. Like-named read-outs stand apart in the source and are kept apart here.

Experiments:
C. albicans = assay: Antifungal Activity Assay (broth microtiter MIC), C. albicans; format: cell-based, Candida albicans; conditions: Candida albicans, ATCC90028, 48 h, ATCC 90028, 3 replicates, MIC recorded at 48 h, read-out: MIC, C. albicans ATCC 90028
Procedure, shortened: (§1)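 Broth microdilution per CLSI M27-A3 in RPMI 1640+MOPS, inoculum 2.5×10^3 CFU/mL final from overnight Sabouraud dextrose agar cultures at 35° C. Compounds diluted from DMSO stock to 128 μg/mL in water. MIC read visually versus growth control at 48 h.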

[1] = test system: Fusarium virguliforme (Fv); assay: Growth inhibition assay of fungal pathogens, Fv; format: cell-based; conditions: 48 h, growth inhibition at 48 hours vs 2% DMSO control, read-out: Concentration at 90% Inhibition Fv
Method: (§2) Compounds of the present invention were evaluated in a growth inhibition assay to determine the ability to control the growth of fungal pathogens, such as Botrtyis cinerea (Bc), Collectotrichum graminicola (Cg), Diplodia maydis (Dm), Fusarium moniliforme (Fm), Fusarium virguliforme (Fv), Phytophthora capsici (Pc), Rhizoctonia solani (Rs), and Septoria tritici (St).
(§3) Compounds to be tested were dissolved in DMSO at 2.5 mg/ml to produce compound stock solutions (“stocks”). Stocks were diluted with DMSO by a five-fold dilution in a 96-well stock plate, and two sets of final concentrations of 50, 10, and 2 ppm or 2, 0.4, and 0.08 ppm were obtained in vitro. A set of positive controls was also prepared, with various concentrations of Soraphen (2, 0.4, and 0.08 ppm), Metalaxyl (1.1, 0.22, and 0.04 ppm), and Metconazole (2, 0.4, and 0.08 ppm or 0.2, 0.04, and 0.008 ppm) after the five-fold dilutions. Negative controls on each plate included 2% DMSO, water, and a blank (media+2% DMSO).
(§4) Fungal spores were isolated from previously sub-cultured plates of Botrtyis cinerea (Bc), Collectotrichum graminicola (Cg), Diplodia maydis (Dm), Fusarium moniliforme (Fm), Fusarium virguliforme (Fv), Phytophthora capsici (Pc), and Septoria tritici (St). The isolated spores were diluted to individual concentrations with a 17% V8 liquid media. For Rhizoctonia solani (Rs) and Pythium irregulare, 1.5 mm mycelial plugs were used in place of spores and/4 Potato Dextrose Broth (PDB) was used for dilution. The spore concentrations and plug sizes were based on growth curves generated at 48 hours for each pathogen.
(§5) In a second 96-well plate, the spores or mycelial plugs, media, diluted compound solutions, and controls were combined. Once the compound was added, a true final concentration of compound in each well was measured by an OD600 reading, which adjusted for any compound precipitation that might have occurred in the well. Plate readings were repeated at both 24 and 48 hours. The blank negative control was used as a background subtraction. Additional visual ratings were performed at both 24 and 48 hours for checking on precipitation and confirming efficacy. Visual and OD600 ratings of the compounds at 48 hours were compared to the 2% DMSO negative control, and the percent of pathogen growth inhibition was determined based on those values.

human (hACC2) = human (hACC2) (Homo sapiens, UniProt O00763); assay: In vitro ACC inhibition assay (ADP-Glo), hACC2; format: biochemical; conditions: 5 nM ACC2, 20 μM ATP, 20 μM acetyl-CoA
Sequence of human (hACC2) (O00763 whole entry): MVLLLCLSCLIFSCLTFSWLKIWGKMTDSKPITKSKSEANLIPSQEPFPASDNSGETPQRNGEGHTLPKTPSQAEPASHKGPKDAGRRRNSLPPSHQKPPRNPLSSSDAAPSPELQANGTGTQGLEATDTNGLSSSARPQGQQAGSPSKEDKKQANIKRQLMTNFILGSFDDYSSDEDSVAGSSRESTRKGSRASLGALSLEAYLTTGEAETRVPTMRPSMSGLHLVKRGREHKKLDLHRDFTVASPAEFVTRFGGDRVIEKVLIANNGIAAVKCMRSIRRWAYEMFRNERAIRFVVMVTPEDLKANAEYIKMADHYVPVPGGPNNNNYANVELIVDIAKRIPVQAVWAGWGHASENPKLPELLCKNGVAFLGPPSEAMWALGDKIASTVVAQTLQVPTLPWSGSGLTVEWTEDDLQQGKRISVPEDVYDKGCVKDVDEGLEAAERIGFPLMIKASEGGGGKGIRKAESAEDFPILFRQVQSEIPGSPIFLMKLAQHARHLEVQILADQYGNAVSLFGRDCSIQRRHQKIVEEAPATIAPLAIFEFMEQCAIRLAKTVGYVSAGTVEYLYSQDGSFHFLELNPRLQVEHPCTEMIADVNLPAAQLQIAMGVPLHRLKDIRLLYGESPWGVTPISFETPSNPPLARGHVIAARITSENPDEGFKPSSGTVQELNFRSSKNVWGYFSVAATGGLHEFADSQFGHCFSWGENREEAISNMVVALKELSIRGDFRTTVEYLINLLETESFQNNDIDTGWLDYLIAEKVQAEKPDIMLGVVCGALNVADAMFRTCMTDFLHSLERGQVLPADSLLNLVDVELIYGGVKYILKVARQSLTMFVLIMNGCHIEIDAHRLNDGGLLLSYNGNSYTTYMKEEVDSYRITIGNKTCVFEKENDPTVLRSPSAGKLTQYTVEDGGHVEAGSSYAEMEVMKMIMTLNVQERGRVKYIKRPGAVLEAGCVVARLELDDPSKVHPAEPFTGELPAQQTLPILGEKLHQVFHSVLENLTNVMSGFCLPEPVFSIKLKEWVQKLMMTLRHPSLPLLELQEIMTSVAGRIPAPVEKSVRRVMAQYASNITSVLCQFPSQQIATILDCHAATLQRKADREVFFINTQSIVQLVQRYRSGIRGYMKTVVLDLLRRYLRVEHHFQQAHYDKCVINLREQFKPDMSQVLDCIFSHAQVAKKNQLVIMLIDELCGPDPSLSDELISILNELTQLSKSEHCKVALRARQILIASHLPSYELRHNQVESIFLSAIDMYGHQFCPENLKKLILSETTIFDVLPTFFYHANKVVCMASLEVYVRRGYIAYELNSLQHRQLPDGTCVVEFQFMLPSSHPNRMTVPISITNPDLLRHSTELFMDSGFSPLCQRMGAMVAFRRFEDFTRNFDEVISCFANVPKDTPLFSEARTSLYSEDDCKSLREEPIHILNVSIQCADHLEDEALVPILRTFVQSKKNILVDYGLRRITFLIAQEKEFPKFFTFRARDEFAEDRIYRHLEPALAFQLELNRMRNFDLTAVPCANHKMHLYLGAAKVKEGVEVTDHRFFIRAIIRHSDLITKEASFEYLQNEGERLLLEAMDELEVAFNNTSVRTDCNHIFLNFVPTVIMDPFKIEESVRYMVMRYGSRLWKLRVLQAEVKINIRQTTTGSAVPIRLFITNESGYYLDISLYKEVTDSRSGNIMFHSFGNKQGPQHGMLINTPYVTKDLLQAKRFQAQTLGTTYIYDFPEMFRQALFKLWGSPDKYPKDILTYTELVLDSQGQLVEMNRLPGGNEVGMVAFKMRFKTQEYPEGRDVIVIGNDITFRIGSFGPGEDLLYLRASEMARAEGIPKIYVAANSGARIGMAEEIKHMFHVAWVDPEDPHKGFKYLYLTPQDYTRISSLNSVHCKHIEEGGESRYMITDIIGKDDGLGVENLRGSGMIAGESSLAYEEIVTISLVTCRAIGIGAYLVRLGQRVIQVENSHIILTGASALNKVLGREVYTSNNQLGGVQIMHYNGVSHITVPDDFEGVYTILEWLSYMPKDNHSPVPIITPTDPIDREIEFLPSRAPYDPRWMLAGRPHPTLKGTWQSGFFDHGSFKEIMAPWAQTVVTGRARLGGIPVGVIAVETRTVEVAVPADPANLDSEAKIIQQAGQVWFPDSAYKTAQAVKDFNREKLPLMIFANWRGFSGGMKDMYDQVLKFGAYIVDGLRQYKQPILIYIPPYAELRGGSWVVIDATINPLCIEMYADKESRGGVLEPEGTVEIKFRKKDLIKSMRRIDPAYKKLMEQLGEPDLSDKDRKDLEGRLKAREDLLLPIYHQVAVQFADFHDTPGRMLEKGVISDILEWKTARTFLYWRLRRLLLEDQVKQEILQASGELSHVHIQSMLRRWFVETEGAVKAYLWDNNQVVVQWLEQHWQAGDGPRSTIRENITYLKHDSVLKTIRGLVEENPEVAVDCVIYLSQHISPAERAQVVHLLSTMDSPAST
Method: The detailed procedure is as follows. […] 10 μL ADP glo reagent was added. […] 20 μL kinase detection reagent was added.

Diplodia maydis (Dm) = assay: Growth inhibition assay of fungal pathogens, Dm; format: cell-based; conditions: Stenocarpella maydis, 48 h, Diplodia maydis; growth inhibition at 48 hours vs 2% DMSO control; read-out: Concentration at 90% Inhibition Dm
Method: as §2, §3, §4, §5

[2] = test system: Fusarium moniliforme (Fm); assay: Growth inhibition assay of fungal pathogens, Fm; format: cell-based; conditions: Fusarium verticillioides, 48 h, Fusarium moniliforme; growth inhibition at 48 hours vs 2% DMSO control; read-out: Concentration at 90% Inhibition Fm
Method: as §2, §3, §4, §5

fungal (fACC2) = fungal (fACC2) (UniProt Q00955); conditions: read-out: fACC2 (in vitro ACC2 Inhibition Assay, IC50), ADP-Glo, 5 nM ACC2, 20 μM ATP, 20 μM acetyl-CoA
Sequence of fungal (fACC2) (Q00955 whole entry): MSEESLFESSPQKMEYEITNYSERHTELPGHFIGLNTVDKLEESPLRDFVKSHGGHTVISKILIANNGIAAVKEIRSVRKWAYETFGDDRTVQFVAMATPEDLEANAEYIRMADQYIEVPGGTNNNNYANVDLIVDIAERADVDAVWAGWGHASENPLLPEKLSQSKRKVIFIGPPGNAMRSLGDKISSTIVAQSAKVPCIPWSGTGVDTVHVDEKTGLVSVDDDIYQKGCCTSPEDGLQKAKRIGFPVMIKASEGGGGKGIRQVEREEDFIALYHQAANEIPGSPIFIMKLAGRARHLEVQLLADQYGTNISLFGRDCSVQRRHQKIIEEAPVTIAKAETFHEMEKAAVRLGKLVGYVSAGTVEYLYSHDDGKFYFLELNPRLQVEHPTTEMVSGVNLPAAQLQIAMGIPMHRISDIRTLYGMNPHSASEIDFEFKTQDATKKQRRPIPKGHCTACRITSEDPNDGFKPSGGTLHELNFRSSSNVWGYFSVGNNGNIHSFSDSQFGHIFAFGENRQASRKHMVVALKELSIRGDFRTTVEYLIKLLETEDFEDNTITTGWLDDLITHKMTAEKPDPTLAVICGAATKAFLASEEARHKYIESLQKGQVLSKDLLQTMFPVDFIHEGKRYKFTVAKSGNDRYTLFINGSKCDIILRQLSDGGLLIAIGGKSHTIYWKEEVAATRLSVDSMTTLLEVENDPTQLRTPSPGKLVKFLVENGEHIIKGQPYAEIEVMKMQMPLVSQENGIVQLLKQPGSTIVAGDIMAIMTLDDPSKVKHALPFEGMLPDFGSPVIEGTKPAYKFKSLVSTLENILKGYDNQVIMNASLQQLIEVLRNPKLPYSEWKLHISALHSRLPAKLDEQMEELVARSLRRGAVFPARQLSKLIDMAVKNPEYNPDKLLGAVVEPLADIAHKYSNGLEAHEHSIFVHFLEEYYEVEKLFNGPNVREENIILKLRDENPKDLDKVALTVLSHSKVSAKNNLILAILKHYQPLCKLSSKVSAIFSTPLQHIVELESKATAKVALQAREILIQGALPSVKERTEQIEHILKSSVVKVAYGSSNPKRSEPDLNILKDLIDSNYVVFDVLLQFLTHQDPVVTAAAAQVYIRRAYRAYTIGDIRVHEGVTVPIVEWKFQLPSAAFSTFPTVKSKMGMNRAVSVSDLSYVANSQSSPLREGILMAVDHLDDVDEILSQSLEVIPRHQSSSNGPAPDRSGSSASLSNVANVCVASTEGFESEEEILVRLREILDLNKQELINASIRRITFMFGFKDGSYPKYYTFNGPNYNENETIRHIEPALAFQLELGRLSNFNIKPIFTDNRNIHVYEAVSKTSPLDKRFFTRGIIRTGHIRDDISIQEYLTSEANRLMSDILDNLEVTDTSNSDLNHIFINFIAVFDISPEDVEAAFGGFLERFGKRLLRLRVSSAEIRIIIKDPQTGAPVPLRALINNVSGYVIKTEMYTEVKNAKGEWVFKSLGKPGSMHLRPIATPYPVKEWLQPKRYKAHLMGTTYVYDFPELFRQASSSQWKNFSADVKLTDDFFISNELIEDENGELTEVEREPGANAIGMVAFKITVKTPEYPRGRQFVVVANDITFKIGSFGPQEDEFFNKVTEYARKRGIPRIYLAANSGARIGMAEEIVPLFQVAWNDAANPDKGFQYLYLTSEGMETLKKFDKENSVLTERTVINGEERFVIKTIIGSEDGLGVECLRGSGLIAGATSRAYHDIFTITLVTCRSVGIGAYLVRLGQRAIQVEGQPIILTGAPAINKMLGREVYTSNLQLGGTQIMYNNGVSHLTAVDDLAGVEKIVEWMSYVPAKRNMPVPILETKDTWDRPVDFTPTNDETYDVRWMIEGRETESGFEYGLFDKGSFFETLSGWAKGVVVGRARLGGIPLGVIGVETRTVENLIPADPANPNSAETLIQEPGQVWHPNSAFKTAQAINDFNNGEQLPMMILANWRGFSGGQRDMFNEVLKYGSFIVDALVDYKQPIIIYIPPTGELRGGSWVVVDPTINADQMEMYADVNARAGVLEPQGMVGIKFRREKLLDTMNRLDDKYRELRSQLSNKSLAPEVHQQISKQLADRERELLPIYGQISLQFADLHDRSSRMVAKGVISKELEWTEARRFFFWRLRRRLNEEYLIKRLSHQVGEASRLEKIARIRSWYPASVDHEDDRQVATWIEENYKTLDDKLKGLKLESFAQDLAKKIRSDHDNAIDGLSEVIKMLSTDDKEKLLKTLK

[3] = test system: Collectotrichum graminicola (Cg); assay: Growth inhibition assay of fungal pathogens, Cg; format: cell-based; conditions: 48 h, Collectotrichum graminicola; growth inhibition at 48 hours vs 2% DMSO control; read-out: Concentration at 90% Inhibition Cg
Method: as §2, §3, §4, §5

Botrtyis cinerea (Bc) = assay: Growth inhibition assay of fungal pathogens, Bc; format: cell-based; conditions: 48 h, Botrtyis cinerea; growth inhibition at 48 hours vs 2% DMSO control; read-out: Concentration at 90% Inhibition Bc
Method: as §2, §3, §4, §5

Septoria tritici (St) = assay: Growth inhibition assay of fungal pathogens, St; format: cell-based; conditions: Zymoseptoria tritici, 48 h, Septoria tritici; growth inhibition at 48 hours vs 2% DMSO control; read-out: Concentration at 90% Inhibition St
Method: as §2, §3, §4, §5

Rhizoctonia solani (Rs) = assay: Growth inhibition assay of fungal pathogens, Rs; format: cell-based; conditions: 48 h, mycelial plugs, growth inhibition at 48 hours vs 2% DMSO control, read-out: Concentration at 90% Inhibition Rs
Method: as §2, §3, §4, §5

C. krusei = assay: Antifungal Activity Assay (broth microtiter MIC), C. krusei; format: cell-based, Candida krusei; conditions: Pichia kudriavzevii, ATCC6258, 48 h, ATCC 6258, 3 replicates, MIC recorded at 48 h, read-out: MIC, C. krusei ATCC 6258
Procedure, shortened: as §1

[4] = test system: Phytophthora capsici (Pc); assay: Growth inhibition assay of fungal pathogens, Pc; format: cell-based; conditions: 48 h, growth inhibition at 48 hours vs 2% DMSO control, read-out: Concentration at 90% Inhibition Pc
Method: as §2, §3, §4, §5

C. parapsilosis = assay: Antifungal Activity Assay (broth microtiter MIC), C. parapsilosis; format: cell-based, Candida parapsilosis; conditions: Lodderomyces parapsilosis, ATCC22019, 48 h, ATCC 22019, 3 replicates, MIC recorded at 48 h, read-out: MIC, C. parapsilosis ATCC 22019
Procedure, shortened: as §1

Structure (SMILES)	MIC (C. albicans; Table 3a)	MIC (C. albicans; Table 3b (additional results))	IC90 [1]	IC50 (human (hACC2); Table 2a)	IC50 (human (hACC2); Table 2b, additional results)	IC90 (Diplodia maydis (Dm))	IC90 [2]	IC50 (fungal (fACC2); Table 2a)	IC50 (fungal (fACC2); Table 2b, additional results)	IC90 [3]	IC90 (Botrtyis cinerea (Bc))	IC90 (Septoria tritici (St))	IC90 (Rhizoctonia solani (Rs))	MIC (C. krusei; Table 3a)	MIC (C. krusei; Table 3b (additional results))	IC90 [4]	MIC (C. parapsilosis; Table 3a)	MIC (C. parapsilosis; Table 3b (additional results))
CCOC(=O)C(C)(C)n1c(=O)c2c(C)c(-n3nccn3)sc2n(C[C@H](OCCO)c2cc(F)ccc2OC)c1=O [Compound I-74, Ethyl (R)-2-(1-(2-(5-fluoro-2-methoxyphenyl)-2-(2-hydroxyethoxy)ethyl)-5-methyl-2,4-dioxo-6-(2H-1,2,3-triazol-2-yl)-1,4-dihydro-thieno[2,3-d]pyrimidin-3(2H)-yl)-2-methylpropanoate]	2.1 to 4 µg/mL (≈ 3.65 to 6.95 µM)	2.01 to 4 µg/mL (≈ 3.49 to 6.95 µM)	0.4 µg/mL (≈ 0.695 µM)	5 to 10 nM	5 to 10 nM	0.4 µg/mL (≈ 0.695 µM)	0.08 µg/mL (≈ 0.139 µM)	1 to 5 nM	1 to 5 nM	0.4 µg/mL (≈ 0.695 µM)	0.08 µg/mL (≈ 0.139 µM)	10 µg/mL (≈ 17.4 µM)	0.08 µg/mL (≈ 0.139 µM)	0.25 to 1 µg/mL (≈ 0.434 to 1.74 µM)	1.01 to 2 µg/mL (≈ 1.75 to 3.47 µM)	> 50 µg/mL	2.1 to 4 µg/mL (≈ 3.65 to 6.95 µM)	2.01 to 4 µg/mL (≈ 3.49 to 6.95 µM)
COc1ccc(F)cc1[C@@H](Cn1c(=O)n(C(C)(C)C(=O)NC(C)C)c(=O)c2c(C)c(-n3nccn3)sc21)OC(C)=O [Compound I-259]	–	–	0.08 µg/mL (≈ 0.136 µM)	–	5 to 10 nM	0.4 µg/mL (≈ 0.682 µM)	0.08 µg/mL (≈ 0.136 µM)	–	1 to 5 nM	0.4 µg/mL (≈ 0.682 µM)	0.4 µg/mL (≈ 0.682 µM)	> 50 µg/mL	0.08 µg/mL (≈ 0.136 µM)	–	–	> 50 µg/mL	–	–
